Test results taken from patent publication US20250222128A1, “ANTIBODY DRUG-CONJUGATES TARGETING C-MET AND METHODS OF USE THEREOF” (Zymeworks BC Inc., priority 2022, published 2025).
Where two headings read alike, the source gives them in different places.

Experiments:
[1] = system: cMet-positive non-small cell lung carcinoma (NSCLC); conditions: Phase II trials; cited from earlier work
[2] = target: T1, cMet on H292 endogenous cMet-expressing cell line (Homo sapiens, UniProt P08581); experiment: Cellular equilibrium binding by flow cytometry
T1 construct: SNU-5 and H292 endogenous cMet-expressing cell lines; endogenous in cells; host or cells: H292
T1 sequence (P08581 25-1390): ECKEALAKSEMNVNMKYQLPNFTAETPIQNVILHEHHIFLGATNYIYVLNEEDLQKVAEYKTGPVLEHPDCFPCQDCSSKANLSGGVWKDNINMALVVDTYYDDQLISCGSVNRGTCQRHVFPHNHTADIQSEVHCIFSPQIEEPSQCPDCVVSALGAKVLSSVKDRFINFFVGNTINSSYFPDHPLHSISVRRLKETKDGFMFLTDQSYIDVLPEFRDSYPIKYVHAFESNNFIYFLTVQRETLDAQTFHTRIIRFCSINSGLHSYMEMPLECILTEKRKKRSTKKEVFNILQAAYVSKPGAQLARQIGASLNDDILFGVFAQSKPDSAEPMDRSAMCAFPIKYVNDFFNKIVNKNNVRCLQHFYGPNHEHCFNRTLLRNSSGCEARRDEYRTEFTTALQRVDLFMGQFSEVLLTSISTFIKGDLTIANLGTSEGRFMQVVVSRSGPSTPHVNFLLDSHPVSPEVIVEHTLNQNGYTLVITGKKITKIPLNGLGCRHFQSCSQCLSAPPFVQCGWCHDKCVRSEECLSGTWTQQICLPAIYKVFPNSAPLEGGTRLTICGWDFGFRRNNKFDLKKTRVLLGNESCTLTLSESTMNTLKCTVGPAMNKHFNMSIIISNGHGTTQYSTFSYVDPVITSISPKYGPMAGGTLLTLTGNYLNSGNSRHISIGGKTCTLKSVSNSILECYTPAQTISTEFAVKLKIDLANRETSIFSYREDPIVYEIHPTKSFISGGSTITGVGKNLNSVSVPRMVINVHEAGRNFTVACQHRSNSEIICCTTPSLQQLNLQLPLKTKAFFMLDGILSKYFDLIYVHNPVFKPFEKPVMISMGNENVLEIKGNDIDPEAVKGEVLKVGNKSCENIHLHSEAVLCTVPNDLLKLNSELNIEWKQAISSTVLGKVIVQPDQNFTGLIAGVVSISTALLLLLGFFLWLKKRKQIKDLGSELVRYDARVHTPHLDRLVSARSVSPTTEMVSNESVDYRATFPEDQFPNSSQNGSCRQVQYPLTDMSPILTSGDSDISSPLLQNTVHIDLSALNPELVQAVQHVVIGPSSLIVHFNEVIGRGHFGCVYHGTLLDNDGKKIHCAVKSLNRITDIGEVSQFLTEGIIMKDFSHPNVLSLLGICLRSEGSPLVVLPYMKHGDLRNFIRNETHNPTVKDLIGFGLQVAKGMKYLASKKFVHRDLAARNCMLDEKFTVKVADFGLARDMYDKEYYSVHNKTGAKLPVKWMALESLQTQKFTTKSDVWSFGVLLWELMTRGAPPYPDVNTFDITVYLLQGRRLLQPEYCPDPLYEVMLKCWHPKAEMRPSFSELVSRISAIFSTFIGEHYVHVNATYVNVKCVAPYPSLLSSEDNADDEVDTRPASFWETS
Experimental: (§1) The on-cell binding capabilities of ADCs comprising anti-cMet antibodies with either a HomoFc or HetFc backbone (v32634 and v17427, respectively) conjugated to Drug-Linker 002 by stochastic lysine conjugation at approximately DAR 4 and DAR 6 were assessed for cMet binding using SNU-5 and H292 endogenous cMet-expressing cell lines by flow cytometry as described below. Unconjugated anti-RSV antibody palivizumab (v22277) was used as a control.
(§2) Briefly, cells were seeded at 50,000 cells/well in V-bottom 96-well plates and treated with antibody for 24 hours at 4° C. to prevent internalization. Following incubation, cells were washed and stained with anti-human IgG Fc AF647 conjugate (Jackson ImmunoResearch Laboratories, Inc., West Grove, PA; Cat. No. 109-605-098) at 4° C. for 30 min. Following incubation and washing, fluorescence was detected by flow cytometry on a BD LSRFortessa™ Cell Analyzer (BD Biosciences, Franklin Lake, NJ) with 1,000 minimum events collected per well. AF647/APC-A GeoMean (fluorescence signal geometric mean, proportional to anti-Human AF647 binding) in live cell population was plotted using GraphPad Prism Version 8 (GraphPad Software, San Diego, CA).
(§3) The on-cell binding capabilities of the following unconjugated antibodies and ADCs were assessed on SNU-5 and H292 endogenous cMet-expressing cell lines by flow cytometry: unconjugated variant v17427 (HetFc, unmodified hinge), and cysteine insertion variant v29001 (two cysteine insertions), lysine conjugated ADCs comprising variant v17427 and Drug-Linker 002 at DAR 4 or DAR 6, and cysteine conjugated ADCs comprising cysteine insertion variant insertion v29001 conjugated to Drug-Linker 001, Drug-Linker 003 or Drug-Linker 004 at DAR 2, 4 or 6, respectively. […] Cellular binding was determined as described in Example 10.

[3] = target: T2, cMet on SNU-5 endogenous cMet-expressing cell line (Homo sapiens, UniProt P08581); experiment: Cellular equilibrium binding by flow cytometry
T2 construct: SNU-5 and H292 endogenous cMet-expressing cell lines; endogenous in cells; host or cells: SNU-5
T2 sequence (P08581 25-1390): as above
Experimental: as §1, §2, §3

HT-29 = experiment: Receptor-mediated internalization, high content imaging; assay type: cell-based; conditions: 5 Hours 37° C.
EBC-1 = experiment: as above; assay type: cell-based; conditions: 5 Hours 37° C.
SW48 (colorectal cancer) = experiment: In vitro cytotoxicity (cell growth inhibition, CellTiter-Glo); assay type: cell-based; conditions: Homo sapiens, 4-5 days, Table 6.1, read-out: EC50 (nM) - DAR corrected
Experimental: (§4) The cell growth inhibition (cytotoxicity) capabilities of anti-cMet ADCs comprising variant v17427 (HetFc, unmodified hinge) conjugated to Drug-Linker 001 or MCvcPABC-MMAE by stochastic cysteine conjugation at an average DAR 4 were determined in a panel of four cMet-expressing cell lines as described below. The cell lines were EBC-1 (lung squamous cell carcinoma), H292 (lung carcinoma), BT-20 (breast cancer) and SW48 (colorectal cancer).
(§5) Briefly, cells were seeded in 384-well plates at 1,000-1,500 cells/well density and treated with a titration of test article, generated in complete cell growth medium. Treated cells were incubated for 4-5 days under standard culturing conditions (37° C./5% CO2). After incubation, CellTiter-Glo® reagent (Promega Corporation, Madison, WI; Cat. No. G7570) was spiked into each well and luminescence corresponding to ATP present in each well was measured using a Synergy™ H1 microplate (BioTek Instruments, Winooski, VT). Based on blank wells (no test article added, only blank media), % cytotoxicity values were calculated using ATP measurement RLU values (Relative Light Units) and plotted against test article concentration using GraphPad Prism 8 software (GraphPad Software, San Diego, CA).

H292 (lung carcinoma) = experiment: as above; assay type: cell-based
Experimental: as §4, §5
(§6) Cytotoxicity was determined as described in Example 6 with treated cells (1,000 cells/well) being incubated for 4 days under standard culturing conditions (37° C./5% CO2).
(§7) The cell growth inhibition capabilities of ADCs comprising anti-cMet antibodies with either a HomoFc or HetFc backbone (v32634 and v17427, respectively) conjugated to Drug-Linker 002 by stochastic lysine conjugation at approximately DAR 4 and DAR 6 were assessed in a panel of four cMet-expressing tumour cell lines and one cMet-negative cell line. The anti-RSV antibody, palivizumab (v22277), conjugated to Drug-Linker 002 at DAR 3.7, and free payload (Compound 1), were used as controls. Cytotoxicity was determined as described in Example 8. Cell lines were SNU-5 (gastric carcinoma), EBC-1 (lung squamous cell carcinoma), H1975 (non-small cell lung cancer), H292 (lung carcinoma) and cMet-negative T-47D (breast cancer).
(§8) The cell growth inhibition capabilities of site-specific cysteine-conjugated ADCs comprising various cysteine insertion antibody variants conjugated to Drug-Linker 001 at approximately DAR 1, 2 or 3, were assessed in a panel of four cMet-expressing tumour cell lines, SNU-5 (gastric carcinoma), EBC-1 (lung squamous cell carcinoma), H292 (lung carcinoma) and H1975 (non-small cell lung cancer), and one cMet-negative cell line, T-47D (breast carcinoma). An ADC comprising the anti-RSV antibody palivizumab (v22277) conjugated to Drug-Linker 001 at approximately DAR 4 was used as a non-targeted control. […] Cytotoxicity was determined as described in Example 7.
(§9) The cell growth inhibition capabilities of ADCs comprising variant v29001, having two cysteine insertions, conjugated to multivalent Drug-Linker 003 or multivalent Drug-Linker 004, were assessed in a panel of cMet-expressing tumour cell lines together with ADCs comprising parental variant v17427 conjugated to the monovalent Drug-Linker 002 at DAR 4 or DAR 6. Cell lines used were SNU-5 (gastric carcinoma), EBC-1 (lung squamous cell carcinoma), H292 (lung carcinoma), H1975 (non-small cell lung cancer) and T-47D (breast carcinoma, cMet-negative). ADCs comprising the anti-RSV antibody palivizumab (v22277) conjugated to Drug-Linker 002 were used as non-targeted controls. Free payload Compound 1 was also included as a control. Cytotoxicity was determined as described in Example 8.

[4] = system: EBC-1 (lung squamous cell carcinoma); experiment: as above; assay type: cell-based
Experimental: as §4, §5, §6, §7, §8, §9

BT-20 (breast cancer) = experiment: as above; assay type: cell-based
Experimental: as §4
as §5, with “CA). […]” for “CA).”
as §6

[5] = system: cMet-negative T-47D (breast cancer); experiment: as above; assay type: cell-based; conditions: Homo sapiens, T47D, 96 h
Experimental: as §5, §6
The cell growth inhibition capabilities of ADCs comprising anti-cMet antibodies with either a HomoFc or HetFc backbone (v32634 and v17427, respectively) conjugated to Drug-Linker 002 by stochastic lysine conjugation at approximately DAR 4 and DAR 6 were assessed in a panel of four cMet-expressing tumour cell lines and one cMet-negative cell line. […] Cytotoxicity was determined as described in Example 8. […]

[6] = system: SNU-5 (gastric carcinoma); experiment: as above; assay type: cell-based; conditions: 4 days
Experimental: as §5
(§10) The cell growth inhibition capabilities of anti-cMet ADCs comprising variant v17427 (HetFc, unmodified hinge) conjugated to Drug-Linker 002 by stochastic lysine conjugation at DARs ranging from DAR 2 to DAR 6 were determined in a panel of seven cMet-expressing cell lines. Variant v17427 conjugated to MCvcPABC-MMAE drug linker at DAR 4, and anti-RSV antibody, palivizumab (v22277), conjugated to Drug-Linker 002 or MCvcPABC-MMAE at DAR 4, were used as controls. Cell lines were SNU-5 (gastric carcinoma), EBC-1 (lung squamous cell carcinoma), HCC827 (lung cancer), H1975 (non-small cell lung cancer), HCT-116 (colorectal cancer), H292 (lung carcinoma) and BT-20 (breast cancer).
as §6, §7, §9

[7] = system: H1975 (non-small cell lung cancer); experiment: as above; assay type: cell-based
Experimental: as §5, §10, §6, §7, §9

[8] = system: HCT-116 (colorectal cancer); experiment: as above; assay type: cell-based; conditions: 4 days, Table 8.1
Experimental: as §5
(§11) The cell growth inhibition capabilities of anti-cMet ADCs comprising variant v17427 (HetFc, unmodified hinge) conjugated to Drug-Linker 002 by stochastic lysine conjugation at DARs ranging from DAR 2 to DAR 6 were determined in a panel of seven cMet-expressing cell lines. […]
as §6

HCC827 (lung cancer) = experiment: as above; assay type: cell-based; conditions: 4 days, Table 8.1
Experimental: as §5, §11, §6

[9] = 24 hours at 4° C., Table 10.1, read-out: Apparent Kd
[10] = Table 13.1, read-out: Apparent Kd

In the case of telisotuzumab vedotin, the anti-tumour activity [1] is listed as “anti-tumour activity”.

Molecule “v22277: anti-RSV antibody, palivizumab, non-targeted control [reference compound]” has a Kd [2, 9] of over 50 nM, a Kd [2, 10] of over 50 nM and a Kd [3, 9] of over 50 nM. For the same molecule, the Kd [3, 10] was over 50 nM, the “Mean Object Fluorescence (Internalized)” value (HT-29; 0.3 nM) was 2,746 and the “Mean Object Fluorescence (Internalized)” value (HT-29; 1.9 nM) was 2,363. For the same molecule, the “Mean Object Fluorescence (Internalized)” value (HT-29; 12 nM) was 2,331, the “Mean Object Fluorescence (Internalized)” value (HT-29; 70 nM) was 2,290 and the “Mean Object Fluorescence (Internalized)” value (EBC-1; 0.3 nM) was 2,686. For the same molecule, the “Mean Object Fluorescence (Internalized)” value (EBC-1; 1.9 nM) was 3,054, the “Mean Object Fluorescence (Internalized)” value (EBC-1; 12 nM) was 1,989 and the “Mean Object Fluorescence (Internalized)” value (EBC-1; 70 nM) was 2,605.

CC[C@H](C)[C@@H]([C@@H](CC(=O)N1CCC[C@H]1[C@H](OC)[C@@H](C)C(=O)NS(=O)(=O)c1ccc(N)cc1)OC)N(C)C(=O)[C@@H](NC(=O)[C@H](C(C)C)N(C)C)C(C)C [Compound 1, (S)-N-((3R,4S,5S)-1-((S)-2-((1R,2R)-3-((4-aminophenyl)sulfonamido)-1-methoxy-2-methyl-3-oxopropyl)pyrrolidin-1-yl)-3-methoxy-5-methyl-1-oxoheptan-4-yl)-2-((S)-2-(dimethylamino)-3-methylbutanamido)-N,3-dimethylbutanamide] gave an EC50 (SW48 (colorectal cancer)) of 43.6 nM, an EC50 (H292 (lung carcinoma); Homo sapiens, NCI-H292, 96 h, H292, 4 days, Table 9.1) of 7.42 nM and an EC50 (H292 (lung carcinoma); Homo sapiens, NCI-H292, 96 h, H292, 4 days, Table 12.1) of 7.42 nM. For the same molecule, the EC50 (H292 (lung carcinoma); Homo sapiens, NCI-H292, read-out: EC50 (nM) - DAR corrected, H292, 4-5 days, Table 6.1) was 22.2 nM, the EC50 ([4]; Homo sapiens, EBC-1, 96 h) was 26.3 nM and the EC50 ([4]; Homo sapiens, EBC-1, read-out: EC50 (nM) - DAR corrected) was 44.4 nM. For the same molecule, the EC50 (BT-20 (breast cancer); Homo sapiens, BT-20, read-out: EC50 (nM) - DAR corrected) was 39.2 nM, the EC50 [5] was 44.8 nM and the EC50 ([6]; Homo sapiens, SNU-5, 96 h, Table 9.1) was 40 nM. The EC50 ([6]; Homo sapiens, SNU-5, 96 h, Table 12.1) was 40.1 nM and the EC50 ([7]; Homo sapiens, NCI-H1975, 96 h) was 22.7 nM.

“V22277-MCvcPABC-MMAE DAR 4.0: palivizumab (v22277) conjugated to MCvcPABC-MMAE at DAR 4, control [reference compound]” showed an EC50 [8] of over 10 nM, an EC50 (HCC827 (lung cancer)) of over 10 nM and an EC50 (H292 (lung carcinoma); H292, 4 days, Table 8.1, read-out: EC50) of over 10 nM. The EC50 ([4]; EBC-1, 4 days, Table 8.1, read-out: EC50) was over 10 nM, the EC50 (BT-20 (breast cancer); BT-20, 4 days, Table 8.1, read-out: EC50) was over 10 nM and the EC50 ([6]; Table 8.1, read-out: EC50) was over 10 nM. It also gave an EC50 ([7]; H1975, 4 days, Table 8.1, read-out: EC50) of over 10 nM.
